Assay results published in paper PMC3026871 (Cancer chemotherapy and pharmacology, 2010).

What was measured:
[1] = Plasma pharmacokinetics in patients; details: for concentration at 24 h / concentration at 6 h: Cmin; for concentration at 24 h: 24 hours after the daily dose; for concentration at 6 h: 6 hours after the second dose
dogs = details: the most sensitive species; cited from earlier work
[2] = human, plasma, oral, 5 mg, Mean (SD), QD-7D 5 mg, Day 7, steady state, n=4
[3] = human, plasma, oral, 10 mg, Mean (SD), QD-7D 10 mg, Day 7, steady state, n=4
[4] = human, plasma, oral, 20 mg, Mean (SD), QD-7D 20 mg, Day 7, steady state, n=3
[5] = human, plasma, oral, 25 mg, Mean (SD), QID-7D 25 mg, Day 7, Dose 2, steady state, n=6
[6] = human, plasma, oral, 30 mg, Mean (SD), QD-7D 30 mg, Day 7, steady state, n=6
[7] = human, plasma, oral, 35 mg, Mean (SD), QID-7D 35 mg, Day 7, Dose 2, steady state, n=3
[8] = human, plasma, oral, 40 mg, QD-7D 40 mg, Day 7, steady state, individual data, n=1
[9] = human, plasma, oral, 45 mg, Mean (SD), QID-7D 45 mg, Day 7, Dose 2, steady state, n=3
[10] = human, plasma, oral, 55 mg, Mean (SD), QID-7D 55 mg, Day 7, Dose 2, steady state, n=4
[11] = human, plasma, oral, 55 mg, Mean (SD), QID/M-7D 55 mg, Day 7, Dose 2, steady state, n=3
[12] = human, plasma, oral, 60 mg, Mean (SD), QID/M-7D 60 mg, Day 7, Dose 2, steady state, n=6
[13] = human, plasma, oral, 60 mg, Mean (SD), QID/M-14D 60 mg, Day 14, Dose 2, steady state, n=3
[14] = human, plasma, oral, 60 mg, QID/M-21D 60 mg, Day 21, Dose 2, steady state, individual data, n=1
[15] = human, plasma, oral, 70 mg, Mean (SD), QID/M-7D 70 mg, Day 7, Dose 2, steady state, n=3
[16] = human, plasma, oral, 80 mg, Mean (SD), QID/M-7D 80 mg, Day 7, Dose 2, steady state, n=3

O=C(O)c1ccc(Nc2ncc3c(n2)-c2ccc(Cl)cc2C(c2c(F)cccc2F)=NC3)cc1 [MLN8054]
concentration at 7 day ([1]; human, in vivo, 60 mg): ~2000 nM | concentration at 14 day ([1]; human, in vivo, 60 mg): > 2000 nM | AUC(0-t) ([1]; human, plasma, oral, 5 mg, AUC0–24, Mean (SD), QD-7D 5 mg, Day 7, steady state, n=4): 6.16 µM·h | Cmax [1, 2]: 521 nM | concentration at 24 h [1, 2]: 162 nM | Tmax ([1]; human, plasma, oral, 5 mg, Tmax, Mean (SD), QD-7D 5 mg, Day 7, steady state, n=4): 1.7 h | AUC(0-t) ([1]; human, plasma, oral, 10 mg, AUC0–24, Mean (SD), QD-7D 10 mg, Day 7, steady state, n=4): 7.53 µM·h | Cmax [1, 3]: 724 nM | concentration at 24 h [1, 3]: 154 nM | Tmax ([1]; human, plasma, oral, 10 mg, Tmax, Mean (SD), QD-7D 10 mg, Day 7, steady state, n=4): 3.8 h | AUC(0-t) ([1]; human, plasma, oral, 20 mg, AUC0–24, Mean (SD), QD-7D 20 mg, Day 7, steady state, n=3): 13.5 µM·h | Cmax [1, 4]: 1180 nM | concentration at 24 h [1, 4]: 240 nM | Tmax ([1]; human, plasma, oral, 20 mg, Tmax, Mean (SD), QD-7D 20 mg, Day 7, steady state, n=3): 3.3 h | AUC(0-t) ([1]; human, plasma, oral, 25 mg, AUC0–24, Mean (SD), QID-7D 25 mg, Day 7, Dose 2, steady state, n=6): 4.85 µM·h | Cmax [1, 5]: 1050 nM | concentration at 6 h [1, 5]: 720 nM | Tmax ([1]; human, plasma, oral, 25 mg, Tmax, Mean (SD), QID-7D 25 mg, Day 7, Dose 2, steady state, n=6): 2.5 h | AUC(0-t) ([1]; human, plasma, oral, 30 mg, AUC0–24, Mean (SD), QD-7D 30 mg, Day 7, steady state, n=6): 28.2 µM·h | Cmax [1, 6]: 2360 nM | concentration at 24 h [1, 6]: 912 nM | Tmax ([1]; human, plasma, oral, 30 mg, Tmax, Mean (SD), QD-7D 30 mg, Day 7, steady state, n=6): 3 h | AUC(0-t) ([1]; human, plasma, oral, 35 mg, AUC0–24, Mean (SD), QID-7D 35 mg, Day 7, Dose 2, steady state, n=3): 9.71 µM·h | Cmax [1, 7]: 1970 nM | concentration at 6 h [1, 7]: 1460 nM | Tmax ([1]; human, plasma, oral, 35 mg, Tmax, Mean (SD), QID-7D 35 mg, Day 7, Dose 2, steady state, n=3): 1.5 h | AUC(0-t) ([1]; human, plasma, oral, 40 mg, AUC0–24, QD-7D 40 mg, Day 7, steady state, individual data, n=1): 24.2 µM·h | Cmax [1, 8]: 3040 nM | concentration at 24 h [1, 8]: 461 nM | Tmax ([1]; human, plasma, oral, 40 mg, Tmax, QD-7D 40 mg, Day 7, steady state, individual data, n=1): 1 h | AUC(0-t) ([1]; human, plasma, oral, 45 mg, AUC0–24, Mean (SD), QID-7D 45 mg, Day 7, Dose 2, steady state, n=3): 7.55 µM·h | Cmax [1, 9]: 1530 nM | concentration at 6 h [1, 9]: 1140 nM | Tmax ([1]; human, plasma, oral, 45 mg, Tmax, Mean (SD), QID-7D 45 mg, Day 7, Dose 2, steady state, n=3): 0.8 h | AUC(0-t) ([1]; human, plasma, oral, 55 mg, AUC0–24, Mean (SD), QID-7D 55 mg, Day 7, Dose 2, steady state, n=4): 12.5 µM·h | AUC(0-t) ([1]; human, plasma, oral, 55 mg, AUC0–24, Mean (SD), QID/M-7D 55 mg, Day 7, Dose 2, steady state, n=3): 10.7 µM·h | Cmax [1, 10]: 2480 nM | Cmax [1, 11]: 2310 nM | concentration at 6 h [1, 10]: 1800 nM | concentration at 6 h [1, 11]: 1310 nM | Tmax ([1]; human, plasma, oral, 55 mg, Tmax, Mean (SD), QID-7D 55 mg, Day 7, Dose 2, steady state, n=4): 1.2 h | Tmax ([1]; human, plasma, oral, 55 mg, Tmax, Mean (SD), QID/M-7D 55 mg, Day 7, Dose 2, steady state, n=3): 1 h | AUC(0-t) ([1]; human, plasma, oral, 60 mg, AUC0–24, Mean (SD), QID/M-7D 60 mg, Day 7, Dose 2, steady state, n=6): 8.38 µM·h | AUC(0-t) ([1]; human, plasma, oral, 60 mg, AUC0–24, Mean (SD), QID/M-14D 60 mg, Day 14, Dose 2, steady state, n=3): 13.2 µM·h | AUC(0-t) ([1]; human, plasma, oral, 60 mg, AUC0–24, QID/M-21D 60 mg, Day 21, Dose 2, steady state, individual data, n=1): 7.03 µM·h | Cmax [1, 12]: 1950 nM | Cmax [1, 13]: 2640 nM | Cmax [1, 14]: 1500 nM | concentration at 6 h [1, 12]: 1090 nM | concentration at 6 h [1, 13]: 2070 nM | concentration at 6 h [1, 14]: 945 nM | Tmax ([1]; human, plasma, oral, 60 mg, Tmax, Mean (SD), QID/M-7D 60 mg, Day 7, Dose 2, steady state, n=6): 1.3 h | Tmax ([1]; human, plasma, oral, 60 mg, Tmax, Mean (SD), QID/M-14D 60 mg, Day 14, Dose 2, steady state, n=3): 2.3 h | Tmax ([1]; human, plasma, oral, 60 mg, Tmax, QID/M-21D 60 mg, Day 21, Dose 2, steady state, individual data, n=1): 1 h | AUC(0-t) ([1]; human, plasma, oral, 70 mg, AUC0–24, Mean (SD), QID/M-7D 70 mg, Day 7, Dose 2, steady state, n=3): 15.2 µM·h | Cmax [1, 15]: 3280 nM | concentration at 6 h [1, 15]: 1950 nM | Tmax ([1]; human, plasma, oral, 70 mg, Tmax, Mean (SD), QID/M-7D 70 mg, Day 7, Dose 2, steady state, n=3): 1.5 h | concentration at 7 days ([1]; human, plasma, oral, 70 mg, mean plasma MLN8054 concentration maintained over the course of treatment, QID/M-7D 70 mg cohort): 2000 nM | AUC(0-t) ([1]; human, plasma, oral, 80 mg, AUC0–24, Mean (SD), QID/M-7D 80 mg, Day 7, Dose 2, steady state, n=3): 10.1 µM·h | Cmax [1, 16]: 2130 nM | concentration at 6 h [1, 16]: 1670 nM | Tmax ([1]; human, plasma, oral, 80 mg, Tmax, Mean (SD), QID/M-7D 80 mg, Day 7, Dose 2, steady state, n=3): 1 h | half-life ([1]; human, plasma, po): 30 to 40 h | Tmax ([1]; human, plasma, po, Tmax (range across cohorts), patients, across cohorts): 1 to 4 h | patients with trough MLN8054 concentrations >2000 nM ([1]; of the 48 patients with sufficient data to estimate pharmacokinetic parameters): 7 patients | highest non-severely toxic dose (dogs): 20 mg/m^2/day
